This note sets out measurements from patent US20140031388A1, “AKT INACTIVATION BY TOCOPHERYL DERIVATIVES” (priority 2012, published 2014).

What is called Kd is the constant that tells how readily two partners part at equilibrium.

The target of assay [1] is T1, PH domain of Akt (GST-PH domain fusion protein) (Homo sapiens, UniProt P31749).
T1 construct: made in house
Nature of the assay: Surface plasmon resonance binding, Akt PH domain. The note with it: SPR, wild-type PH domain; means (n = 3) ± SD; read-out: Kd, Akt PH domain. An excerpt:
(§1) The cDNA fragments corresponding to the putative PH domain sequences of PHLPP1 (+115 to +372), PDK1 (+1225 to +1671), Akt1 (+1 to +447) and ILK (+538 to +646) were PCR-amplified using the plasmids pcDNA-HA-PHLPP1, pWZL-Neo-Myr-FLAG-PDPK1, pcDNA-HA-PKB-T308D-S473D, and pCMV-SPORT-ILK (Addgene) as templates. The PCR products were then cloned into EcoRI/XhoI sites of the pGEX-4T1 expression vector (GE Healthcare Life Sciences) to generate four constructs (pGEX-4T1-PHLPP1, pGEX-4T1-PDPK1, pGEX-4T1-AKT1, pGEX-4T1-ILK) for the expression of GST-PH domain fusion proteins. The mutated Akt1 Y38G PH domain was generated from pGEX-4T1-AKT1 by site-directed mutagenesis using the QuikChange II XL Site-Directed Mutagenesis Kit (Agilent Technologies). The expression and purification of GST-PH domain fusion proteins were performed essentially as described previously. Thomas et al., Curr Biol 12, 1256 (2002). The purified PH domains were analyzed by SDS-PAGE using an overloaded gel with purities were estimated to be >95% using ImageJ software.
(§2) Binding experiments were performed using a Biacore T100 system (GE Healthcare, Piscataway, N.J.). The GST-PH domain fusion proteins were immobilized on a CM5 S Sensorchip using Biacore's Amine Coupling Kit to a level of 17,000 response units. VE5 compounds and di-octanoyl PIP3 at concentrations ranging from 0.1 to 100 μM and 1 to 20 μm, respectively, were injected at a high flow rate (30 μL/min) over the biosensor surface for binding analyses. DMSO concentrations in all samples and running buffer were 1% (v/v) or less. Data were analyzed using Biacore T100 Evaluation Software.

Assay [2] addresses T2, PH domain of PDK1 (GST-PH domain fusion protein) (Homo sapiens, UniProt O15530).
T2 construct: made in house
T2 sequence (O15530 459-550 limits assumed): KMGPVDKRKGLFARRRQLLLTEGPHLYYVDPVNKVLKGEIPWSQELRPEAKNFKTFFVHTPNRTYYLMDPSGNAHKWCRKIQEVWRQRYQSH
Nature of the assay: Surface plasmon resonance binding, PDK1 PH domain. As to conditions: SPR; means (n = 3) ± SD; read-out: Kd, PDK1 PH domain.
Description: as §1, §2

The target in assay [3] is T3, PH domain of ILK (GST-PH domain fusion protein) (Homo sapiens, UniProt Q13418).
T3 construct: made in house
T3 sequence (Q13418 180-212 limits assumed): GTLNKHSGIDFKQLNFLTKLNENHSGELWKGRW
Description: Surface plasmon resonance binding, ILK PH domain. As to conditions: SPR; means (n = 3) ± SD; read-out: Kd, ILK PH domain.
Description: as §1, §2
A general note: Surface plasmon resonance follows binding to a sensor surface in real time, without labels.

Assay [4] concerns Akt membrane localization in LNCaP cells. Description: Immunocytochemistry, membrane localization of Akt. In kind it is cell-based. As to conditions: DMSO-treated cells 38.0±5.7%. The procedure:
After 24 hours treatment, LNCaP cells were fixed in 4% formaldehyde for 20 min before permeabilization with 0.1% Triton X-100 in PBS at room temperature for 1 hour followed by incubation in 1% FBS (in PBS) for 1 hour. Cells were stained for endogenous PH domain-containing proteins (Akt, PHLPP, PDK-1, ILK, BTK) by incubation with specific antibodies (1:100), followed by incubation with the Alexa Fluor 555-conjugated goat anti-rabbit or Alexa Fluor 488-conjugated goat anti-mouse IgG (1:200) at room temperature for 2 hours. Both primary and secondary antibodies were diluted in incubation buffer containing 0.1% Triton X-100 and 0.2% bovine serum albumin in PBS. The cells were washed in PBS after each step and mounted using […] mounting medium supplemented with DAPI (Vector Laboratories Inc., Burlingame, Calif.). The slides were allowed to set for at least 4 hours before confocal images were acquired using a Zeiss LSM 510 inverted confocal laser scanning microscope operated with Zeiss LSM 510 software. Image analysis was performed using ImageJ (NIH) software.

For assay [5], the system named is phosphorylation of Ser473 in Akt. Description: Western blot of Akt phosphorylation at Ser473. As to conditions: LNCaP and PC-3 cells, Thr308 not altered. The class given is cell-based. The procedure:
(§3) Cells were exposed to the test agents in 10-cm dishes for 24 hours and then collected by scraping. The cell pellets were washed once with PBS, and then lysed at 4° C. over 30 min of incubation in a sodium dodecyl sulfate (SDS) lysis buffer containing 1% SDS, 50 mM Tris HCl (pH 8.1), 10 mM EDTA and […] protease inhibitor cocktail (Sigma-Aldrich). The cell debris was pelleted by centrifugation for 20 min at 14,000×g, and 1 μl of each supernatant was used for determination of protein concentration using a colorimetric bicinchoninic assay (Pierce, Rockford, Ill.). The remaining sample was added to equal volume of 2×SDS-polyacrylamide gel electrophoresis sample loading buffer (62.5 mM Tris-HCl, pH 6.8, 4% SDS, 5% β-mercaptoethanol, 20% glycerol, 0.1% bromophenol blue), followed by incubation in boiling water for 5 min. Equivalent amounts of total protein were resolved in SDS-polyacrylamide gels, and then transferred to nitrocellulose membranes using a semidry transfer cell. The transblotted membrane was washed twice with Tris-buffered saline containing 0.1% Tween 20 (TBST). After blocking with TBST containing 5% nonfat milk for 40 min, the membrane was incubated with the appropriate primary antibody (1:1000) in TBST-1% nonfat milk at 4° C. overnight. The membrane was then washed three times with TBST for a total of 15 min, followed by incubation with goat anti-rabbit or anti-mouse IgG-horseradish peroxidase conjugates (1:2000) for 1 hour at room temperature and four washes with TBST for a total of 1 hour. The immunoblots were visualized by enhanced chemiluminescence (GE Healthcare Life Sciences).
A general note: A western blot detects proteins with antibodies after separation by electrophoresis.

The test system of assay [6] is mTORC2 (mTOR, rictor, SGK, PKCα). Description: Western blot of mTORC2 components and downstream targets. The class given is cell-based. The procedure: as §3

T1 sequence (P31749 5-108 limits assumed): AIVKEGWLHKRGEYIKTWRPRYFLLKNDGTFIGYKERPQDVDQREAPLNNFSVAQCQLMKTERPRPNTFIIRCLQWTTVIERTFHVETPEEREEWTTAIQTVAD

On to `Cc1c(C)c2c(c(C)c1O)CC[C@@](C)(CCCC(C)C)O2` [α-VE5, (R)-2,5,7,8-tetramethyl-2-(4-methylpentyl)-chroman-6-ol], for which the Kd in assay [1] came to 3.4 µM; in assay [2], 19.3 ± 0.6 µM; in assay [3], 26.6 ± 1 µM. Besides, the “cells with membrane localization of Akt” value in assay [4] turned out to be 65.0±8.9%. Also, the “effect on phosphorylation of Akt at Ser473” value in assay [5] is reported as “parallel reduction”. Also, the “abundance or phosphorylation of mTORC2 components and targets (mTOR, rictor, SGK, PKCα)” value in assay [6] is listed as “lack of changes”.
As for `Cc1c(O)cc2c(c1C)O[C@](C)(CCCC(C)C)CC2` [γ-VE5, (R)-2,7,8-trimethyl-2-(4-methylpentyl)-chroman-6-ol], the Kd in assay [1] was determined as 0.9 ± 0.1 µM; in assay [2] it was 12.4 ± 0.1 µM; in assay [3] it was 18.7 ± 4.5 µM. Moreover, the “cells with membrane localization of Akt” value in assay [4] turned out to be 71.4±2.5%. Moreover, the “effect on phosphorylation of Akt at Ser473” value in assay [5] is reported as “parallel reduction”. The “abundance or phosphorylation of mTORC2 components and targets (mTOR, rictor, SGK, PKCα)” value in assay [6] is listed as “lack of changes”.
